Reference: patent US20210177819A1, “METHODS AND COMPOSITIONS FOR MODULATING CALCIUM CHANNELS” (Northwestern University, priority 2005, published 2021)
Entries after “also recorded” stand apart in the source; their conditions may differ.

Tested on: SNc dopaminergic neurons
Assay: Whole cell patch clamp recordings of pacemaking in dopaminergic neurons in brain slices
Format: cell-based, mouse

## COC(=O)C1=C(C)NC(C)=C(C(=O)OC(C)C)C1c1cccc2nonc12 (stereo not drawn) [isradipine, 3,5-pyridinedicarboxylic acid, 4-(4-benzofurazanyl)-1,4-dihydro-2,6-dimethyl-, methyl 1-methylethyl ester]
Adult SNc dopaminergic neuron, before, during and after application, FIG. 4
  effect of sustained blockade on pacemaking (altered pacemaking mechanism): altered pacemaking mechanism can be elicited; also recorded: restores pacemaking and dopaminergic neuron cell function through an altered pacemaking mechanism

## COCCOC(=O)C1=C(C)NC(C)=C(C(=O)OC(C)C)C1c1cccc([N+](=O)[O-])c1 (stereo not drawn) [nimodipine, isopropyl 2-methoxyethyl 1,4-dihydro-2,6-dimethyl-4-(m-nitrophenyl)-3,5-pyridinedicarboxylate]
Tissue slice from an adult, FIG. 1
  effect on autonomous pacemaking of dopaminergic neurons: inhibits autonomous pacemaking of dopaminergic neurons

## NC1=N[C@H](O)[C@H]2[C@H]3O[C@]4(O)O[C@@H]([C@@H](O)[C@@]2(N1)[C@@H]4O)[C@]3(O)CO [tetrodotoxin]
  effect of blockade of TTX sensitive sodium channels on spikes and oscillations: eliminates spikes but not the underlying oscillations that drive pacemaking
